Assay [1] relates to leucine-deprived GCN2−/− mice. Nature of the assay: C75 treatment of leucine-deprived GCN2−/− mice (liver steatosis, liver gene expression). The class given is in vivo. The note with it: 20 mg/kg IP, three doses over seven days. How it is done: FIG. 5. Leucine deprivation induced-liver steatosis in GCN2^−/− mice is prevented by inhibition of FAS expression. GCN2 KO (−/−) mice were fed a leucine-deprived diets for seven days and were given C75 at a dose of 20 mg/Kg body weight in 200 μl RPMI or only RPMI every other day by IP injection during this period. A. Liver histology for GCN2 KO mice. Sections from animals were stained with oil red O, magnification 40×. Lipid deposits are detected as red-stained areas. B and C. Expression of FAS mRNA (B) and FAS protein (C, top: western blot; bottom: FAS protein relative to tubulin and normalized to control diet group within same strains of mice). *Effect of with C75 treatment fed on (−) leu diet versus without C75 treatment fed on (−) leu diet or control diet in GCN2 KO mice (two-tailed student t-test; p<0.0001.). [KO: control diet (n=6); (−) leu diet (n=5); (−) leu diet+C75 (n=3)]. D and E. Expression of PPARα and ACO mRNA. *Effect of with C75 treatment versus without C75 treatment on either (−) leu diet (*a: p<0.001) or control diet group (*b: p<0.001) in GCN2 KO mice (two-tailed student t-test; p<0.0001.). [KO: control diet (n=6); (−) leu diet (n=5); (−) leu diet+C75 (n=3)].
Wild-type C57BL/6J (GCN2^+/+) mice were obtained from Jackson Laboratories (Bar Harbor, Me.). […] Food intake and body weight were recorded daily. […] Body, liver and adipose tissue weight were recorded at the time of sacrifice. […]
Total RNA was prepared from frozen liver using an RNase mini kit (Qiagen). Quantitative RT-PCR was performed using co-amplification of GAPDH as an internal control. 1 μg of RNA was reverse transcribed with random primers (Promega) and then quantitative PCR was performed with the qPCR core kit for sybergreen I (Eurogentec) by 7000 sequence detection system (Applied Biosystems). […] At a specific threshold in the linear amplification stage, the cycle differences between amplified GAPDH and cDNA of interest were used to determine the relative quantity of genes of interest. […]

The subject of a further assay is liver FAS expression. The note with it: 24 hrs after a single IP injection (30 mg/kg body weight); cited from earlier work.
The test system of another assay is GCN2−/− mice. Briefly: PPARα agonist WY compound in leucine-deprived GCN2−/− mice (fatty liver). The class given is in vivo.

SMILES strings stand for the structures. “Also recorded” adds a separate entry of the source.

For the molecule `C=C1C(=O)OC(CCCCCCCC)C1C(=O)O` (centres unmarked) [C75], in assay [1], the “FAS mRNA and protein levels in liver” value was “repressed”; the “levels of PPARα and ACO mRNA in liver” value is given as “reduced”; the liver steatosis entry is listed as “prevented”. The “liver FAS expression” value in the assay on liver FAS expression is “inhibit FAS expression significantly; also recorded: significant reductions”.
For the molecule `Cc1cccc(Nc2cc(Cl)nc(SCC(=O)O)n2)c1C` [WY compound], the “development of fatty liver” value with GCN2−/− mice is listed as “not able to prevent”.

The values above are taken from patent US20080200422A1, “Methods for reduction of adipose tissue mass” (priority 2007, published 2008).
